According to ChEMBL document CHEMBL3046819, “Synthesis and antimicrobial activity of new pyridine derivatives-I” (2011):

Assays:
Assay type in all cases: functional
Details in all cases: read-out: IZ
Escherichia coli [1] = assay: Antibacterial activity against Escherichia coli ATCC 25922 at 200 ug/ml by cup-plate method
Pseudomonas aeruginosa [2] = assay: Antibacterial activity against Pseudomonas aeruginosa ATCC 9027 at 200 ug/ml by cup-plate method
Pseudomonas aeruginosa [3] = assay: Antibacterial activity against Pseudomonas aeruginosa ATCC 9027 at 100 ug/ml by cup-plate method
Staphylococcus aureus [4] = assay: Antibacterial activity against Staphylococcus aureus ATCC 9144 at 100 ug/ml by cup-plate method
Escherichia coli [5] = assay: Antibacterial activity against Escherichia coli ATCC 25922 at 100 ug/ml by cup-plate method
Bacillus subtilis [6] = assay: Antibacterial activity against Bacillus subtilis ATCC 6633 at 200 ug/ml by cup-plate method
Staphylococcus aureus [7] = assay: Antibacterial activity against Staphylococcus aureus ATCC 9144 at 200 ug/ml by cup-plate method
Candida albicans [8] = assay: Antifungal activity against Candida albicans ATCC 10231 at 200 ug/ml by cup-plate method
Bacillus subtilis [9] = assay: Antibacterial activity against Bacillus subtilis ATCC 6633 at 100 ug/ml by cup-plate method
Candida albicans [10] = assay: Antifungal activity against Candida albicans ATCC 10231 at 100 ug/ml by cup-plate method

| SMILES | zone of inhibition at 200 µg/mL (Escherichia coli [1]) [mm] | zone of inhibition at 200 µg/mL (Pseudomonas aeruginosa [2]) [mm] | zone of inhibition at 100 µg/mL (Pseudomonas aeruginosa [3]) [mm] | zone of inhibition at 100 µg/mL (Staphylococcus aureus [4]) [mm] | zone of inhibition at 100 µg/mL (Escherichia coli [5]) [mm] | zone of inhibition at 200 µg/mL (Bacillus subtilis [6]) [mm] | zone of inhibition at 200 µg/mL (Staphylococcus aureus [7]) [mm] | zone of inhibition at 200 µg/mL (Candida albicans [8]) [mm] | zone of inhibition at 100 µg/mL (Bacillus subtilis [9]) [mm] | zone of inhibition at 100 µg/mL (Candida albicans [10]) [mm] |
| --- | --- | --- | --- | --- | --- | --- | --- | --- | --- | --- |
| O=C(c1cccnc1Nc1nc2ccccc2s1)N1CCN(CCO)CC1 | 8 | 9 | 8 | 6 | 7 | 10 | 7 | 5 | 6 | 3 |
| O=C(c1cccnc1Nc1nc2c([N+](=O)[O-])cccc2s1)N1CCN(CCO)CC1 | 9 | 11 | 8 | 8 | 5 | 9 | 12 | 7 | 8 | 4 |
| O=C(c1cccnc1Nc1nc2cc([N+](=O)[O-])ccc2s1)N1CCN(CCO)CC1 | 8 | 7 | 7 | 6 | 4 | 8 | 11 | 4 | 8 | 2 |
| O=C(c1cccnc1Nc1nc2ccc([N+](=O)[O-])cc2s1)N1CCN(CCO)CC1 | 5 | 8 | 6 | 8 | 0 | 6 | 9 | 2 | 0 | 0 |
| O=C(c1cccnc1Nc1nc2c(Cl)cccc2s1)N1CCN(CCO)CC1 | 9 | 9 | 7 | 7 | 6 | 8 | 7 | 6 | 7 | 3 |
| O=C(c1cccnc1Nc1nc2cc(Cl)ccc2s1)N1CCN(CCO)CC1 | 5 | 3 | 0 | 0 | 5 | 5 | 0 | 4 | 5 | 3 |
